Structures can show the parent of a compound that is named as a salt.

Data set [1] in a line: Polymorphic stability of crystalline forms over a period of time. The format is physicochemical.
For data set [2] the following is noted: neat crystalline dihydrochloride salts N1 and N2, screening studies; cited from earlier work.
The nature of data set [3]: Storage stability of crystalline form L2 (temperature/RH conditions, HPLC purity). The format is physicochemical.

As for `COC(=O)N[C@H](C(=O)N1CCC[C@H]1c1nc(-c2ccc(-c3ccc(-c4c[nH]c([C@@H]5CCCN5C(=O)[C@@H](NC(=O)OC)C(C)C)n4)cc3)cc2)c[nH]1)C(C)C` [form L1, N,N′-[[1,1′-biphenyl]-4,4′-diylbis[1H-imidazole-5,2-diyl-(2S)-2,1-pyrrolidinediyl[(1S)-1-(1-methylethyl)-2-oxo-2,1-ethanediyl]]]bis-carbamic acid, C,C′-dimethyl ester, hydrochloride (1:2)], the “polymorphic stability (conversion to any other polymorphic form)” value in data set [1] is “stable and do not get converted to any other polymorphic form”.

Turning to `COC(=O)N[C@H](C(=O)N1CCC[C@H]1c1nc(-c2ccc(-c3ccc(-c4c[nH]c([C@@H]5CCCN5C(=O)[C@@H](NC(=O)OC)C(C)C)n4)cc3)cc2)c[nH]1)C(C)C` [form N-2, N,N′-[[1,1′-biphenyl]-4,4′-diylbis[1H-imidazole-5,2-diyl-(2S)-2,1-pyrrolidinediyl[(1S)-1-(1-methylethyl)-2-oxo-2,1-ethanediyl]]]bis-carbamic acid, C,C′-dimethyl ester, hydrochloride (1:2)], the “thermodynamic stability among polymorphs” value in data set [2] is given as “thermodynamically most stable polymorph”. For `COC(=O)N[C@H](C(=O)N1CCC[C@H]1c1nc(-c2ccc(-c3ccc(-c4c[nH]c([C@@H]5CCCN5C(=O)[C@@H](NC(=O)OC)C(C)C)n4)cc3)cc2)c[nH]1)C(C)C` [form L2, N,N′-[[1,1′-biphenyl]-4,4′-diylbis[1H-imidazole-5,2-diyl-(2S)-2,1-pyrrolidinediyl[(1S)-1-(1-methylethyl)-2-oxo-2,1-ethanediyl]]]bis-carbamic acid, C,C′-dimethyl ester, hydrochloride (1:2)], the stability result in data set [3] (5±3° C.), in data set [3] (25±2° C./60±5% RH) and in data set [3] (40±2° C./75±5% RH) was “stable” each time.

The record behind these values is patent publication US20190256498A1, “CRYSTALLINE FORMS OF DACLATASVIR DIHYDROCHLORIDE” (LUPIN LIMITED, priority 2016, published 2019).
